Patent US20020115723A1, “Cysteine derivatives” (AJINOMOTO CO., INC., priority 1998, published 2002)
Values joined by “and” are separate entries in the source; they are usually repeats but may differ in a detail not shown here. Identical values can stand only once.

Experiments:
[1] = system: human epidermal cells; test: Toxicity to the cultured human epidermal cells seen in the NF-κB / AP-1 activation tests; format: cell-based
Procedure: Each of the test compounds was added to a culture plate at a concentration within an extent not causing a damage to the human epidermal cells which had reached the confluent stage in the culture plate. After 18 hours had elapsed, the culture medium was substituted by a phenol red-free medium. The cells were exposed to ultraviolet rays (UVB: 50 mJ/cm^2) from an ultraviolet irradiator “Dermaray M-DMR-80” (ex Toshiba Medical Supply Co., Ltd.). After 4 to 5 hours had elapsed, the cells were collected, and the nucleoprotein was extracted therefrom in a manner known per se in the art. From the resulting nucleoprotein, the activated NF-κB was detected in accordance with the gel shift assay. The amount of the NF-κB was determined by measuring the radioactive value of the NF-κB band with the use of a bioimaging analyzer “BAS 2000” (ex Fuji Film Co., Ltd.).
(§1) In a similar manner to Test Example 1, a nucleoprotein was obtained. Then, the activated AP-1 was detected by the gel shift assay. The radioactive value of the AP-1 band was measured as in Test Example 1, whereby the amount of the AP-1 was determined. The AP-1 activation inhibiting ratio of the test compounds was calculated by the below-described equation (2). The results of the test compounds according to the present invention are shown below in Table 4a, while those of the comparative compounds are shown below in Table 4b.

[2] = system: AP-1; test: Test on the function of inhibiting the AP-1 activation induced by ultraviolet rays (gel shift assay); format: cell-based, human; details: single compound
Procedure: Test on the Function of Inhibiting the AP-1 Activation Induced by Ultraviolet Rays.
as §1
AP-1 activation inhibiting ratio (%)={1−(B1-B3)/(B2-B3)}×100 (2)
B1: radioactive value of the AP-1 band upon addition of a test compound.
B2: radioactive value of the AP-1 band when a test compound is not added.
B3: radioactive value of the AP-1 band when a test compound is not added and is not exposed to ultraviolet rays.

[3] = system: NF-κB; test: Test on the function of inhibiting the activation of NF-κB induced by ultraviolet rays (gel shift assay); format: cell-based, human; details: human epidermal cells, UVB 50 mJ/cm^2
Procedure: Test on the Function of Inhibiting the Activation of NF-κB Induced by Ultraviolet Rays.
After 18 hours had elapsed, the culture medium was substituted by a phenol red-free medium. The cells were exposed to ultraviolet rays (UVB: 50 mJ/cm^2) from an ultraviolet irradiator “Dermaray M-DMR-80” (ex Toshiba Medical Supply Co., Ltd.). After 4 to 5 hours had elapsed, the cells were collected, and the nucleoprotein was extracted therefrom in a manner known per se in the art. From the resulting nucleoprotein, the activated NF-κB was detected in accordance with the gel shift assay. The amount of the NF-κB was determined by measuring the radioactive value of the NF-κB band with the use of a bioimaging analyzer “BAS 2000” (ex Fuji Film Co., Ltd.).
The inhibition ratio of the activation of the NF-κB of the test compounds was calculated from the below-described formula (1).
Inhibition ratio of NF-κB activation (%)={1−(A1-A3)/(A2-A3)}×100 (1)
A1: radioactive value of the NF-κB upon addition of a test compound
A2: radioactive value of NF-κB when a test compound is not added
A3: radioactive value of NF-κB when a test compound is not added and is not exposed to ultraviolet rays.

[4] = system: Hairless mice (SKH-1); test: Test on suppressing function of wrinkles formation induced by ultraviolet rays (No. 1); format: in vivo, mouse; details: for Wrinkle score, individual mouse / Wrinkle score, Average: 10% applied; for Wrinkle score, individual mouse: score 0 to 5
Procedure: Test on Suppressing Function of Wrinkles Formation Induced by Ultraviolet Rays (No. 1)
(§2) Hairless mice (SKH-1, female, 5-6 weeks old) were exposed to ultraviolet rays (UVB) three times/week (Monday, Wednesday and Friday) for 5 weeks, each at 50 to 100 mJ/cm^2 by using the above-described “Dermaray M-DMR-80” (ex Toshiba Medical Supply Co., Ltd.). The test compound (N,N′-diacetyl-L-cystine dimethyl ester) was dissolved in a mixed solvent of propylene glycol, ethanol and water, and was applied to the back portion of each of the mice in an amount of 100 μl, 30 to 60 minutes before exposure to ultraviolet rays, just after the completion of the exposure, and on the days free from exposure to ultraviolet rays (Sunday, Tuesday, Thursday and Saturday). From two weeks after the exposure had started, the wrinkles formed on the back portion of each mouse were evaluated once a week based on the below-described standards, and they were indicated as scores. In addition, the function of the inventive compound for inhibiting wrinkle formation induced by ultraviolet rays was judged based on the below-described judging standards.

[5] = system: Hairless mice (SKH-1); test: Test on inhibiting function of wrinkles formation induced by ultraviolet rays (No. 2), Components (A) and (B) in combination; format: in vivo, mouse; parameters: scale not given here; details: 10% alone
Procedure: as §2
Test on Inhibiting Function of Wrinkles Formation Induced by Ultraviolet Rays (No. 2)
Function of suppressing ultraviolet ray-induced wrinkles formation by the synergistic effects when Components (A) and (B) were used in combination, was judged in a similar manner to Test Example 2. Fifteen to twenty mice were divided into 4 groups, that is, a 1st group to which a mixed solvent of propylene glycol, ethanol and water was to be applied, a 2nd group to which a solution of only Component (A) dissolved in the above-described solvent was to be applied, a 3rd group to which a solution of only Component (B) dissolved in the above-described solvent was to be applied, and a 4th group to which a solution of both Components (A) and (B) dissolved in the above-described solvent was to be applied. An average score of each group was determined.

Compound	Toxicity expressed (in inhibiting ratio column) ([1]; 100 μM, AP-1 test)	AP-1 activation Inhibiting ratio (%) ([2]; 1 μM)	AP-1 activation Inhibiting ratio (%) ([2]; 10 μM)	Inhibition ratio (%) of NF-κB activation ([3]; addition concentration 0.01 mM) [%]	Inhibition ratio (%) of NF-κB activation ([3]; addition concentration 0.1 mM) [%]	Wrinkle score, individual mouse ([4]; 2nd week of UVB exposure)	Wrinkle score, Average ([4]; 2nd week, solvent group 2.6)	Wrinkle score, individual mouse ([4]; 3rd week of UVB exposure)	Wrinkle score, Average ([4]; 3rd week, solvent group 3.6)	Wrinkle score, individual mouse ([4]; 4th week of UVB exposure)	Wrinkle score, Average ([4]; 4th week, solvent group 4.0)	Wrinkle score, individual mouse ([4]; 5th week of UVB exposure)	Wrinkle score, Average ([4]; 5th week, solvent group 4.4)	Effect on wrinkle formation induced by ultraviolet rays (in words) ([4]; summary of Table 3)	Wrinkle score (group average) ([5]; 4th week)	Wrinkle score (group average) ([5]; 5th week)	Inhibition ratio (%) of NF-κB activation ([3]; addition concentration 0.5 mM) [%]	Inhibition ratio (%) of NF-κB activation ([3]; addition concentration 1 mM) [%]	Toxicity expressed (inhibition ratio) ([1]; addition concentration 5 mM, NF-κB test)
CC1=C(/C=C/C(C)=C/C=C/C(C)=C/C=C/C=C(C)/C=C/C=C(C)/C=C/C2=C(C)C(=O)[C@@H](O)CC2(C)C)C(C)(C)C[C@H](O)C1=O [astaxantin]	Toxicity	−54	0	–	–	–	–	–	–	–	–	–	–	–	–	–	–	–	–
COC(=O)[C@H](CSSC[C@H](NC(C)=O)C(=O)OC)NC(C)=O [N,N′-diacetyl-L-cystine dimethyl ester]	–	–	4	47	86	2 and 1 (4×) and 0 and 3	1.3	2 (5×) and 3 and 1	2.0	3 (3×) and 5 (2×) and 2 and 4	3.6	2 (3×) and 3 (3×) and 4	2.7	exhibited effects for retarding and alleviating the wrinkle formation induced by ultraviolet rays	5.0 and 3.0 and 2.5	4.0 and 2.0	–	–	–
CCOC(=O)[C@@H](N)CS [L-cysteine ethyl ester]	–	–	–	–	–	–	–	–	–	–	–	–	–	–	–	–	60	61	Toxity
